We go through one substance from patent US11192932B2, “Heparin-binding domain of IGFBP-2 in the treatment of metabolic disorders” (Amolyt Pharma, priority 2018, dated 2021).

“Also recorded” adds a separate entry of the source. No end group written: not given here. *: point of attachment. Stearoyl = CCCCCCCCCCCCCCCCCC(=O)*

One experiment relates to 3T3-LI adipocytes. Description: [3H]-2-deoxyglucose uptake by fully differentiated 3T3-LI adipocytes. The class given is cell-based, mouse. Particulars: 3 μg/ml for 24 hours. As to the method: The cells were exposed to the test compounds at a concentration of 3 μg/ml for 24 hours before testing for [^3H]-2-deoxyglucose uptake.
3T3-LI cells are a mouse fibroblast cell line which when cultured under specific conditions, differentiate into adipocytes.
Differentiation of 3T3-LI cells into adipocytes was achieved using the following protocol. 3T3-L1 cells were seeded in 24-well plates and cultured in 3T3-L1 maintenance medium (DMEM containing 10% fetal bovine serum, 4 mM L-glutamine 1 mM, sodium pyruvate) until the cells were 100% confluent. The cells were then fed with 3T3-L1 maintenance medium and cultured for a further 48 h. To initiate differentiation into adipocytes, the medium was changed to Differentiation medium 1 (DMEM containing 10% fetal bovine serum, 4 mM L-glutamine, 1 mM sodium pyruvate, 0.5 mM IBMX, […]), and cultured for a further 2 days. The medium was then changed to Differentiation medium 2 (DMEM containing 10% fetal bovine serum, 4 mM L-glutamine, 1 mM sodium pyruvate, 1 mg/ml insulin), and cultured for a further 2 days. The medium was then changed to Adipocyte Maintenance medium (DMEM containing 10% fetal bovine serum, 4 mM L-glutamine, 1 mM sodium pyruvate), and cultured for a further 7 days. During this time, the medium was changed every other day. The now fully differentiated adipocytes were utilized for glucose uptake experiments (day 11 from initiation of differentiation). Stock solutions of the HBD1 peptides to be tested were prepared by dilution with 0.9% NaCl solution under sterile conditions in a laminar flow cabinet to a concentration of 1 mg/ml, based on net peptide content. The solutions were homogenized by gentle inversion. Test items were prepared from the stock solutions, and remaining stock solution was aliquoted and stored at −20° C. and used without repeated freeze-thaw cycles.
Glucose uptake experiments were carried our using the following protocol. Prior to beginning the experiment, 100 ml of Krebs Ringer bicarbonate buffer (KRBB)(25 mM Hepes pH 7.4, 118 mM NaCl, 5 mM NaHCO3, 4.7 mM KCl, 1.2 mM KH2PO4, 1.2 mM MgSO4, 2.5 mM CaCl2, 0.2% BSA—Filtered using a 0.2 μm filter) and 100 ml of Incubation medium (DMEM containing 4 mM L-glutamine, 1 mM sodium pyruvate, 1% penicillin streptomycin, 0.2% BSA—Filtered using a 0.2 μm filter) were pre-warmed to 37° C., and 500 ml of KRBB was chilled on ice. Stock solutions of test compounds were diluted to 3 μg/ml final concentrations in pre-warmed Incubation medium and in pre-warmed KRBB. Insulin (positive control), previously diluted 1:1000 in sterile 0.9% NaCl, was further diluted in 10 ml of both medium and buffer to a final concentration of 1 nM. All traces of the medium were carefully removed from the cells using a fine tip. […]

In experiment [1] the test system is C2C12 mouse skeletal muscle myotubes. The experiment is described as follows: 3H-2-deoxyglucose uptake by fully differentiated C2C12 myotubes. The class given is cell-based. As to the method: In particular: HBD1 SEQ ID NO: 73 (C18:0-HLGLEEPKK) at 0.8 μM, 1.5 μM, and 2.3 μM; or 1.5 μM SEQ ID NO: 73 (C18:0-HLGLEEPKK) for 2, 4, and 16 hours prior to testing glucose uptake.
The studies were performed using cultured, fully differentiated C2C12 mouse skeletal muscle myotubes. The cells were prepared by growing C2C12 cells to confluent density in DMEM with 25 mM glucose and 10% fetal bovine serum in 24 well plates. At this time, the medium was changed to differentiation medium (DMEM with 25 mM glucose and 2% horse serum) for 6 days with medium changed every third day. The various treatments were diluted in serum-free medium and, after washing the cells with serum-free medium, were added to the cells and incubated for 2 hours or alternative times, depending on the treatment. At the end of incubation period, the media was removed and 1.0 ml of glucose-free Krebs ringer bicarbonate buffer (pH 7.4), containing the same treatments, was added and incubation continued for 10 minutes. At the end of the 10 min incubation period, ^3H-2-deoxyglucose ([…]) (specific activity=8 Ci/mmole) was added directly to all wells, and the incubation continued for an additional […]. The wells were then rinsed three times with ice cold phosphate buffered saline, the cells were extracted with 0.5 N NaOH, and the ^3H-2-deoxyglucose content of the cell lysate quantitated by scintillation counting.

On to “C18:0-HLGLEEPKK (Stearoyl-HLGLEEPKK) [SEQ ID NO: 73]”, for which the “glucose uptake by 3T3-LI adipocytes” value in the experiment with 3T3-LI adipocytes is “stimulated increased glucose uptake”. In addition, the “glucose uptake by C2C12 myotubes, dose dependence (FIG. 5A)” value in experiment [1] (0.8 μM, 1.5 μM and 2.3 μM, vs vehicle-treated controls) was “stimulated increased glucose uptake as compared with vehicle-treated controls in both a dose- and time-dependent manner”. Besides, the “glucose uptake by C2C12 myotubes, time dependence (FIG. 5B)” value in experiment [1] (1.5 μM for 2, 4 and 16 hours) is “time-dependent manner”. Also, in experiment [1] (1.5 μM plus insulin), the “glucose uptake by C2C12 myotubes with insulin, separate experiment (FIG. 8)” value is “act additively with insulin; also recorded: in an additive manner with insulin”. Also, the “glucose uptake by C2C12 myotubes, separate experiment (FIG. 8)” value in experiment [1] (1.5 μM, alone) is on record as “increased glucose uptake”. Moreover, the “glucose uptake by C2C12 myotubes in combination with insulin (FIG. 5C)” value in experiment [1] (peptide plus insulin) is given as “additive increase in glucose uptake”.
